Data from ChEMBL document CHEMBL1136112, “Novel inhibitors of procollagen C-proteinase. Part 2: glutamic acid hydroxamates” (Bioorg Med Chem Lett, 2003).

Experiments:
[1] = target: T1, Bone morphogenetic protein 1 (Homo sapiens, UniProt P13497); assay: Ability to inhibit procollagen C-terminal proteinase (PCP) tested in vitro
T1 sequence (P13497 whole entry): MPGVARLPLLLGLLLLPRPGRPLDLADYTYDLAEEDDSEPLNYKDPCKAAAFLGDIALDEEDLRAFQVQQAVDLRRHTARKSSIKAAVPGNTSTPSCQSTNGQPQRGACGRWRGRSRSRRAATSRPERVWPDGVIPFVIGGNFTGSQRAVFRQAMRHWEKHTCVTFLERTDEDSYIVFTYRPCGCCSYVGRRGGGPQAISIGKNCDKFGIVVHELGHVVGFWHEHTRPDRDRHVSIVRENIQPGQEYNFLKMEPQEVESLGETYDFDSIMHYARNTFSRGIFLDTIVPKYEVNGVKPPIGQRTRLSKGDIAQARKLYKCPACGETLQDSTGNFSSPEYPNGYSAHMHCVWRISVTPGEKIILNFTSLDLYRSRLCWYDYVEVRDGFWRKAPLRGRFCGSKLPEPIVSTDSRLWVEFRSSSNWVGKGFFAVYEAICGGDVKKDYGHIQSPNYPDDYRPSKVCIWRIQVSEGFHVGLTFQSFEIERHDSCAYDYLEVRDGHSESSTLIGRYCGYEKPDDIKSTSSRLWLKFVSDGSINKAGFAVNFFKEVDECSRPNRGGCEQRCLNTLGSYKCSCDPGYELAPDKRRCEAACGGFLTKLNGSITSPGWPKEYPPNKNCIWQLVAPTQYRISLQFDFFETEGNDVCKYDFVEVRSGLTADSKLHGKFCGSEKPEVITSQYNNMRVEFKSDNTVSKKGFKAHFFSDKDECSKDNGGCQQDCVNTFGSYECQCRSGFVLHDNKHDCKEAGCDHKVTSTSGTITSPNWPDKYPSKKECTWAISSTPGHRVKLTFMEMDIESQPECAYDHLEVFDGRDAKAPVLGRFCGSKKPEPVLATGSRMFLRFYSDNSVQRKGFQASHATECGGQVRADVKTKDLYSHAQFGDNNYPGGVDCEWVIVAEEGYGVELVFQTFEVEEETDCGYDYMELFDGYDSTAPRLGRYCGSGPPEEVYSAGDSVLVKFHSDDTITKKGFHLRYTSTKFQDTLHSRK

[2] = target: T2, Interstitial collagenase (Homo sapiens, UniProt P03956); assay: Inhibition of matrix metalloprotease-1
T2 sequence (P03956 whole entry): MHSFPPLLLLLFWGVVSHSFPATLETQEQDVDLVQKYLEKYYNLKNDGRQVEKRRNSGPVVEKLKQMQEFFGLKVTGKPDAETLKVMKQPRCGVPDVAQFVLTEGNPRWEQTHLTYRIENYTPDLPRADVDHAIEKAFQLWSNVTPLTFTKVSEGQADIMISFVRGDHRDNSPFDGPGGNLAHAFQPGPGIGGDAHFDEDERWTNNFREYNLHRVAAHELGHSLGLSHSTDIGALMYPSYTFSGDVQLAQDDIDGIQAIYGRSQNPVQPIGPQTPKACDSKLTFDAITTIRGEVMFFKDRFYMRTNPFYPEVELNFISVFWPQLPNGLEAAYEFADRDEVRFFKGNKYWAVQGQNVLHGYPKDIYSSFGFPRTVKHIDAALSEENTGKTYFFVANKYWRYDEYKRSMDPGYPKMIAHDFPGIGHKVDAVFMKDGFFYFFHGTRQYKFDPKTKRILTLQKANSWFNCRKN

[3] = target: Neutrophil collagenase (Homo sapiens, UniProt P22894); assay: Inhibition of MMP-8
Sequence of Neutrophil collagenase (P22894 whole entry): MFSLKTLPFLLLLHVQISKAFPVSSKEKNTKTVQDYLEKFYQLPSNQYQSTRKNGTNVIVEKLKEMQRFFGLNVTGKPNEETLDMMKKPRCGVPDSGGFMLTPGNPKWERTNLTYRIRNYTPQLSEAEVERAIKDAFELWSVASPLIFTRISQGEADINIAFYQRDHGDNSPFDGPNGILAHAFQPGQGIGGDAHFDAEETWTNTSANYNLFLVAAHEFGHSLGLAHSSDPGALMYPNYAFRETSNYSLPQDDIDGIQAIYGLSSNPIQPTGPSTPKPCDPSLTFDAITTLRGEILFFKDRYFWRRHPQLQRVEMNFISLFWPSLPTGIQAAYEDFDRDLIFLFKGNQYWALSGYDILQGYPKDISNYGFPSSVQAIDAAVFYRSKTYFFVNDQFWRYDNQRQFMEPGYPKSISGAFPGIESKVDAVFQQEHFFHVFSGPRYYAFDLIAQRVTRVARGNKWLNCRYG

Row | SMILES | Ki [1] [nM] | Ki [2] [nM] | Ki [3] [nM]
1 | COc1ccc(S(=O)(=O)N(Cc2ccc3c(c2)OCO3)[C@H](CCC(=O)NCC2CCCCC2)C(=O)NO)cc1 | 410 |  | 
2 | COc1ccc(S(=O)(=O)N(Cc2ccc3c(c2)OCO3)[C@H](CCC(=O)NCC(C)C)C(=O)NO)cc1 | 280 |  | 
3 | CCN(CC)C(=O)CC[C@H](C(=O)NO)N(Cc1ccc2c(c1)OCO2)S(=O)(=O)c1ccc(OC)cc1 | 1300 |  | 
4 | COc1ccc(S(=O)(=O)N(Cc2ccc3c(c2)OCO3)[C@H](CCC(=O)NCCC(C)C)C(=O)NO)cc1 | 20 |  | 
5 | COc1ccc(S(=O)(=O)N(Cc2ccc3c(c2)OCO3)[C@H](CCC(=O)N(CCC#N)Cc2cccnc2)C(=O)NO)cc1 | 480 |  | 
6 | COc1ccc(S(=O)(=O)N(Cc2ccc3c(c2)OCO3)[C@H](CCC(=O)NCc2ccc(-c3ccccc3)cc2)C(=O)NO)cc1 | 11 |  | 
7 | COc1ccc(S(=O)(=O)N(Cc2ccc3c(c2)OCO3)[C@H](CCC(=O)N2CCN(C(=O)Nc3cccc(OC)c3)CC2)C(=O)NO)cc1 | 105 |  | 
8 | COc1ccc(S(=O)(=O)N(Cc2ccc3c(c2)OCO3)[C@H](CCC(=O)NCc2ccccn2)C(=O)NO)cc1 | 530 |  | 
9 | COc1ccc(S(=O)(=O)N(Cc2ccc3c(c2)OCO3)[C@H](CCC(=O)N(CCC#N)Cc2ccccc2)C(=O)NO)cc1 | 33 |  | 
10 | COc1cc(C)c(S(=O)(=O)N(Cc2ccc3c(c2)OCO3)[C@H](CCC(=O)N2CCN(C(C)=O)CC2)C(=O)NO)c(C)c1C | 63 | 37000 | 7000
11 | CCOC(=O)N1CCN(C(=O)CC[C@H](C(=O)NO)N(Cc2ccc3c(c2)OCO3)S(=O)(=O)c2ccc(OC)cc2)CC1 | 64 | 90 | 6
12 | CCOC(=O)N1CCN(C(=O)CC[C@H](C(=O)NO)N(Cc2ccc3c(c2)OCO3)S(=O)(=O)c2c(C)cc(OC)c(C)c2C)CC1 | 43 | 32000 | 30000
13 | COc1ccc(NC(=O)N2CCN(C(=O)CC[C@H](C(=O)NO)N(Cc3ccc4c(c3)OCO4)S(=O)(=O)c3ccc(OC)cc3)CC2)cc1 | 90 |  | 
14 | COc1ccc(S(=O)(=O)N(Cc2ccc3c(c2)OCO3)[C@H](CCC(=O)NCc2ccncc2)C(=O)NO)cc1 | 1170 |  | 
15 | COc1ccc(S(=O)(=O)N(Cc2ccc3c(c2)OCO3)[C@H](CCC(=O)N(Cc2ccccc2)Cc2ccccc2)C(=O)NO)cc1 | 400 |  | 
16 | COc1cc(C)c(S(=O)(=O)N(Cc2ccc3c(c2)OCO3)[C@H](CCC(=O)N2CCN(C(=O)OCc3ccccc3)CC2)C(=O)NO)c(C)c1C | 100 | > 40000 | 35000
17 | COc1ccc(S(=O)(=O)N(Cc2ccc3c(c2)OCO3)[C@H](CCC(=O)NCc2cccnc2)C(=O)NO)cc1 | 160 |  | 
18 | COC(=O)C[C@H](C(=O)NO)N(Cc1ccc2c(c1)OCO2)S(=O)(=O)c1ccc(OC)cc1 | 950 |  | 
19 | COC(=O)CC[C@H](C(=O)NO)N(Cc1ccc(OC)cc1)S(=O)(=O)c1ccc(OC)cc1 | 15000 |  | 
20 | COC(=O)CC[C@H](C(=O)NO)N(Cc1ccc(Br)cc1)S(=O)(=O)c1ccc(OC)cc1 | > 40000 |  | 
21 | COc1ccc(S(=O)(=O)N(Cc2ccc3c(c2)OCO3)[C@H](CCC(=O)N(CCc2ccccc2)Cc2ccccc2)C(=O)NO)cc1 | 100 |  | 
22 | COC(=O)CC[C@H](C(=O)NO)N(Cc1ccc(C)c([N+](=O)[O-])c1)S(=O)(=O)c1ccc(OC)cc1 | > 40000 |  | 
23 | COc1ccc(S(=O)(=O)N(Cc2ccc3c(c2)OCO3)[C@H](CCC(=O)NCC2CC2)C(=O)NO)cc1 | 660 |  | 
24 | COC(=O)CC[C@H](C(=O)NO)N(Cc1ccc2c(c1)OCO2)S(=O)(=O)c1ccc(OC)cc1 | 300 |  | 
25 | CCNC(=O)CC[C@H](C(=O)NO)N(Cc1ccc2c(c1)OCO2)S(=O)(=O)c1ccc(OC)cc1 | 1200 |  | 
26 | COC(=O)CC[C@H](C(=O)NO)N(Cc1ccc(C(F)(F)F)cc1)S(=O)(=O)c1ccc(OC)cc1 | > 40000 |  | 
27 | COc1ccc(S(=O)(=O)N(Cc2ccc3c(c2)OCO3)[C@H](CCC(=O)N(C)C)C(=O)NO)cc1 | 330 |  | 
28 | COc1cc(C)c(S(=O)(=O)N(Cc2ccc3c(c2)OCO3)[C@H](CCC(=O)N2CCN(c3ccccc3)CC2)C(=O)NO)c(C)c1C | 110 | > 40000 | 13000

The remaining lines, values ahead:

Row | Ki [1] [nM] | Ki [2] [nM] | Ki [3] [nM] | SMILES
29 | 120 |  |  | COc1ccc(S(=O)(=O)N(Cc2ccc3c(c2)OCO3)[C@H](CCC(=O)N2CCC(Cc3ccccc3)CC2)C(=O)NO)cc1
30 | 1200 |  |  | COc1ccc(S(=O)(=O)N(Cc2ccc3c(c2)OCO3)[C@H](CCC(=O)N2CCNCC2)C(=O)NO)cc1
31 | > 1000 |  |  | COc1ccc(S(=O)(=O)N(Cc2ccc3c(c2)OCO3)[C@H](CCC(=O)N2CCN(Cc3ccncc3)CC2)C(=O)NO)cc1
32 | 260 |  |  | COc1ccc(S(=O)(=O)N(Cc2ccc3c(c2)OCO3)[C@H](CCC(=O)N2CCN(C(=O)OCc3ccccc3)CC2)C(=O)NO)cc1
33 | 210 |  |  | COc1ccc(S(=O)(=O)N(Cc2ccc3c(c2)OCO3)[C@H](CCC(=O)N2CCN(c3ccccn3)CC2)C(=O)NO)cc1
34 | 340 |  |  | COc1ccc(S(=O)(=O)N(Cc2ccc3c(c2)OCO3)[C@H](CCC(=O)N2CCN(S(C)(=O)=O)CC2)C(=O)NO)cc1
35 | 40 |  |  | COc1ccc(S(=O)(=O)N(Cc2ccc3c(c2)OCO3)[C@H](CCC(=O)N2CCN(C(=O)c3ccco3)CC2)C(=O)NO)cc1
36 | 740 |  |  | COc1ccc(S(=O)(=O)N(Cc2ccc3c(c2)OCO3)[C@H](CCC(=O)N2CCN(Cc3ccccc3)CC2)C(=O)NO)cc1
37 | 190 |  |  | COc1ccc(S(=O)(=O)N(Cc2ccc3c(c2)OCO3)[C@H](CCC(=O)N2CCOCC2)C(=O)NO)cc1
38 | 200 | 120 | 9 | COc1ccc(S(=O)(=O)N(Cc2ccc3c(c2)OCO3)[C@H](CCC(=O)N2CCN(C(C)=O)CC2)C(=O)NO)cc1
39 | 620 |  |  | COc1ccc(S(=O)(=O)N(Cc2ccc3c(c2)OCO3)[C@H](CCC(=O)N2CCN(Cc3cccnc3)CC2)C(=O)NO)cc1
40 | 98 |  |  | COc1ccc(S(=O)(=O)N(Cc2ccc3c(c2)OCO3)[C@H](CCC(=O)NCc2ccccc2)C(=O)NO)cc1
41 | > 1000 |  |  | COc1ccc(S(=O)(=O)N(Cc2ccc3c(c2)OCO3)[C@H](CCC(=O)N2CCN(Cc3ccccn3)CC2)C(=O)NO)cc1
42 | 1000 |  |  | COc1ccc(S(=O)(=O)N(Cc2ccc3c(c2)OCO3)[C@H](CCC(=O)N2CCN(C)CC2)C(=O)NO)cc1
43 | 340 |  |  | COc1ccc(S(=O)(=O)N(Cc2ccc3c(c2)OCO3)[C@H](CCC(=O)N2CCN(c3ccccc3)CC2)C(=O)NO)cc1
44 | 35 |  |  | COc1ccc(S(=O)(=O)N(Cc2ccc3c(c2)OCO3)[C@H](CCC(=O)N2CCN(C(=O)c3ccccc3)CC2)C(=O)NO)cc1
